Assay results from patent US9995734B2, “Human T cell line assay for evaluating the immunologic identity of glatiramer acetate preparations” (Mylan Inc., priority 2013, dated 2018).
Where “and” joins values, the source holds several entries; their conditions need not be identical. Identical values can stand only once.

Test system: Donor 3 GMA T-Cell Lines
Assay: ATP proliferation assay (CellTiter Glo), Donor 3 GMA T-cell lines, incl. reactivity to non-canonical GA peptides
Format: cell-based, human
Details: for Non-Canonical Peptide Non-Reactivity: proliferation <2 times no antigen control

poly (Glu-Ala-Tyr; 1:1:1) [GAT 111]
Non-Canonical Peptide Non-Reactivity (165-B5G): GAT 111
Non-Canonical Peptide Non-Reactivity (165-C5G): GAT 111
Non-Canonical Peptide Non-Reactivity (165-E7G): GAT 111
Non-Canonical Peptide Non-Reactivity (165-E9G): GAT 111
Non-Canonical Peptide Non-Reactivity (165-F5G): GAT 111
Non-Canonical Peptide Non-Reactivity (165-F10G): GAT 111
Non-Canonical Peptide Non-Reactivity (165-H11G): GAT 111
Nonreactive T-Cell Line (Donor 3 GMA lines, stimulation with the non-canonical GA peptide): 165-B5G (Donor 3) and 165-C5G (Donor 3) and 165-C8G (Donor 3) and 165-E7G (Donor 3) and 165-E9G (Donor 3) and 165-F5G (Donor 3) and 165-F10G (Donor 3) and 165-H11G (Donor 3)
Proliferation (luminescent ATP assay), Mean (T-cell line 165-05G, 1 μg/mL antigen, Day 50 of culturing, No Antigen Value 2149): 1778 RLU
Proliferation (luminescent ATP assay), Mean (T-cell line 165-05G, 3 μg/mL antigen, Day 50 of culturing, No Antigen Value 2149): 1661 RLU
Proliferation (luminescent ATP assay), Mean (T-cell line 165-05G, 10 μg/mL antigen, Day 50 of culturing, No Antigen Value 2149): 1569 RLU
Proliferation (luminescent ATP assay), Mean (T-cell line 165-05G, 30 μg/mL antigen, Day 50 of culturing, No Antigen Value 2149): 1449 RLU
Proliferation (luminescent ATP assay), Mean (T-cell line 165-B5G, 1.25 μg/mL antigen, Day 55 of culturing, No Antigen Value 846): 1005 RLU
Proliferation (luminescent ATP assay), Mean (T-cell line 165-B5G, 2.5 μg/mL antigen, Day 55 of culturing, No Antigen Value 846): 886 RLU
Proliferation (luminescent ATP assay), Mean (T-cell line 165-B5G, 5 μg/mL antigen, Day 55 of culturing, No Antigen Value 846): 947 RLU
Proliferation (luminescent ATP assay), Mean (T-cell line 165-B5G, 10 μg/mL antigen, Day 55 of culturing, No Antigen Value 846): 931 RLU
Proliferation (luminescent ATP assay), Mean (T-cell line 165-C5G, 1.25 μg/mL antigen, autologous B-LCL): 445 RLU
Proliferation (luminescent ATP assay), Mean (T-cell line 165-C5G, 2.5 μg/mL antigen, autologous B-LCL): 406 RLU
Proliferation (luminescent ATP assay), Mean (T-cell line 165-C5G, 5 μg/mL antigen, autologous B-LCL): 422 RLU
Proliferation (luminescent ATP assay), Mean (T-cell line 165-C5G, 10 μg/mL antigen, autologous B-LCL): 430 RLU
Proliferation (luminescent ATP assay), Mean (T-cell line 165-E7G, 1.25 μg/mL antigen, autologous B-LCL, Day 55): 1896 RLU
Proliferation (luminescent ATP assay), Mean (T-cell line 165-E7G, 2.5 μg/mL antigen, autologous B-LCL, Day 55): 2001 RLU
Proliferation (luminescent ATP assay), Mean (T-cell line 165-E7G, 5 μg/mL antigen, autologous B-LCL, Day 55): 1285 RLU
Proliferation (luminescent ATP assay), Mean (T-cell line 165-E7G, 10 μg/mL antigen, autologous B-LCL, Day 55): 2176 RLU
Proliferation (luminescent ATP assay), Mean (T-cell line 165-E9G, 1 μg/mL antigen, Day 50 of culturing, No Antigen Value 1742): 1528 RLU
Proliferation (luminescent ATP assay), Mean (T-cell line 165-E9G, 1.25 μg/mL antigen, autologous B-LCL): 154 RLU
Proliferation (luminescent ATP assay), Mean (T-cell line 165-E9G, 2.5 μg/mL antigen, autologous B-LCL): 240 RLU
Proliferation (luminescent ATP assay), Mean (T-cell line 165-E9G, 3 μg/mL antigen, Day 50 of culturing, No Antigen Value 1742): 1454 RLU
Proliferation (luminescent ATP assay), Mean (T-cell line 165-E9G, 5 μg/mL antigen, autologous B-LCL): 240 RLU
Proliferation (luminescent ATP assay), Mean (T-cell line 165-E9G, 10 μg/mL antigen, autologous B-LCL): 153 RLU
Proliferation (luminescent ATP assay), Mean (T-cell line 165-E9G, 30 μg/mL antigen, Day 50 of culturing, No Antigen Value 1742): 1301 RLU
Proliferation (luminescent ATP assay), Mean (T-cell line 165-E9G, 10 μpg/mL antigen, Day 50 of culturing, No Antigen Value 1742): 1462 RLU
Proliferation (luminescent ATP assay), Mean (T-cell line 165-F5G, 1.25 μg/mL antigen, autologous B-LCL): 139 RLU
Proliferation (luminescent ATP assay), Mean (T-cell line 165-F5G, 2.5 μg/mL antigen, autologous B-LCL): 121 RLU
Proliferation (luminescent ATP assay), Mean (T-cell line 165-F5G, 5 μg/mL antigen, autologous B-LCL): 142 RLU
Proliferation (luminescent ATP assay), Mean (T-cell line 165-F5G, 10 μg/mL antigen, autologous B-LCL): 122 RLU
Proliferation (luminescent ATP assay), Mean (T-cell line 165-F10G, 1 μg/mL antigen, Day 50 of culturing, No Antigen Value 3752): 3575 RLU
Proliferation (luminescent ATP assay), Mean (T-cell line 165-F10G, 1.25 μg/mL antigen, autologous B-LCL): 929 RLU
Proliferation (luminescent ATP assay), Mean (T-cell line 165-F10G, 2.5 μg/mL antigen, autologous B-LCL): 1342 RLU
Proliferation (luminescent ATP assay), Mean (T-cell line 165-F10G, 3 μg/mL antigen, Day 50 of culturing, No Antigen Value 3752): 2989 RLU
Proliferation (luminescent ATP assay), Mean (T-cell line 165-F10G, 5 μg/mL antigen, autologous B-LCL): 1091 RLU
